Reference: patent US20250002972A1, “METHOD FOR MEASURING SOMATIC DNA MUTATION AND DNA DAMAGE PROFILES AND A […] SUITABLE THEREFORE” (Albert Einstein College of Medicine, priority 2021, published 2025)
Where “and” joins values, the source holds several entries; their conditions need not be identical. Equal entries are not always repeated.

Key:
[1] = test system: Human normal lung IMR90 fibroblasts; assay: SMM-Seq detection of induced somatic SNVs in IMR90 cells treated with ENU; format: cell-based; settings: for sSNVs frq / mutation spectra: CA count / mutation spectra: CG count / mutation spectra: CT count / mutation spectra: TA count / mutation spectra: TC count / mutation spectra: TG count: 72 hours; for sSNVs frq / sSNVs count: single biological replicate; for sSNVs frq: variants / qualified positions (SNV/1 Mb); for mutation spectra: CA count / mutation spectra: CG count / mutation spectra: CT count / mutation spectra: TA count / mutation spectra: TC count / mutation spectra: TG count: single replicate; for sSNVs count: harvested 72 hours after ENU
Experimental: Human normal lung IMR90 fibroblasts were maintained in 10% CO2 and 3% O2 atmosphere at 37° C. in DMEM (GIBCO, Grand Island, NY, USA) supplemented with 10% FBS (GIBCO). Twenty-four hours after cell seeding the culturing media was changed for media containing different doses of ENU. Cells were harvested 72 hours after ENU was applied. Complete media supplemented with ENU (SIGMA, San Louis, MO, USA) was prepared immediately before application from stock solution (100 mg/ml in 100% ethyl alcohol). Control cells were cultured in the presence of the vehicle only.
DNA from fibroblasts and hepatocytes was isolated using Quick-gDNA™ Blood MiniPrep (Zymo Research Corporation, Irvine, CA, USA) according to the manufacturer instructions and quantified using QUBIT kit (ThermoFisher Scientific, USA).
Genomic DNA was first fragmented by double digestion with restriction endonucleases AluI and MluCI (NEB, USA), overnight at 37° C. After purification using 1.5×AMPure XP beads (Beckman Coulter, USA) the fragmented DNA was further processed using NEBNext Ultra II DNA Library Prep Kit for Illumina (NEB). The adapter provided with the kit was replaced with custom adapter P5_HP6N. After double sided size-selection using AMPure XP beads (Beckman Coulter), resulting dumbbell-like product was quantified with QUBIT kit (ThermoFisher) and analyzed on 2100 Bioanalyzer instrument with High Sensitivity DNA kit (Agilent, USA). To prepare P5_HP6N adapter 86 μl of 10 μM solution of oligonucleotide 5′-TCTTC TACAGT NNNNNN AGATCG GAAGAG CACACG TCTGAA CTCCAG TC/ideoxyU/ACACTC TTTCCC TACACG ACGCTC TTCCGA TCT-3′ (IDT, USA) in 0.1×TE buffer was first exposed to 95° C. for 5′ followed by 37° C. for 5′ to form a hairpin. Next, to fill-in the extending 5′-end the self-annealed oligonucleotide was supplemented with 10 μl of Cutsmart buffer (NEB), 2 μl of 10 mM dNTPs mix (NEB) and 10 U of Klenow Fragment (3′→5′ exo-) (NEB) and incubated at 37° C. for 30′. After purification with QIAquick Nucleotide Removal Kit (QIAGEN, USA), the hairpins were digested with 10U of HpyCH4III (NEB) for 1 hour at 37° C., then purified again with QIAquick Nucleotide Removal Kit (QIAGEN) and eluted with 100 μl of EB to obtain ready to use adapter solution.
Next, for SMM sequencing library preparation samples were diluted based on assessed molar concentration. Assuming 150PE sequencing mode and 30 Gb of data per sample, the dilution coefficient (D) was calculated using the formula D=M*NA/1025, where M—sample concentration (pM); NA—Avogadro constant. Next, 1 μl of diluted sample was used as a template in pulse-RCA reaction. The pulse-RCA was performed in 20 μl reaction containing 1 μl of diluted sample, 1 μl of P5-RCA oligo (5′-[…]-3′), 25U (0.5 μl) of SD polymerase HS (BIORON Diagnostics GmbH, Germany), 2 μl of SD polymerase buffer, 1 μl of 10 mM dNTPs mix (NEB), 0.6 μl of 100 mM MgCl2, and 13.9 μl of water. The pulse-RCA program was set as follows: 92° C. for 2′ (1); 92° C. for 30″ (2); 60° C. for 30″ (3); 65° C. for 150″ (4); go to (3) 9 times; hold at 4° C. Product of amplification reaction was purified with […] AMPure XP beads and resuspended in 23 μl TE buffer. The entire volume of RC amplification was PCR amplified in 50 μl reaction volume containing 23 μl of RCA product, 25 μl of NEBNext Ultra II Q5 Master Mix and 1 μl of P5 and P7 dual index oligos. The PCR program was set as follows: 98° C. for 30″ (1); 98° C. for 10″ (2); 65° C. for 75″ (3); go to (2) 8 times (4); 65° C. for 5′ (5); 4° C. forever. The PCR product was purified with 0.7×AMPure XP beads and resuspended in 30 μl of TE buffer. After quantification with Qubit, samples were pooled and sequenced on Illumina NovaSeq instrument using 150 paired-end mode.
Conventional sequencing library was prepared by PCR amplification of adapter ligated samples in 30 μl reaction volume containing 11 μl of undiluted ligated sample, 2U of USER enzyme (NEB) 15 μl of NEBNext Ultra II Q5 Master Mix and 1 μl of P5 and P7 dual index oligos. […]

IMR90 cells = assay: Cell death of IMR90 cells at the ENU doses used; format: cell-based, human; settings: sub-lethal doses of ENU (25 and 50 μg/ml)
[2] = test system: human primary mammary cells; assay: SMM-SV somatic structural variant (SV) frequency after bleomycin; format: cell-based; settings: two different doses of bleomycin, SMM-SV (FIG. 9C)
Description: As explained, SMM is capable of identifying SNVs and small indels, but not SVs. This is due to the overwhelming amount of chimeric DNA fragments created during library construction. For SMM-seq and other single-molecule assays the process of linking DNA fragments to the sequencing adapters also results in random ligation of DNA fragments to each other. The resulting chimeric sequences are not distinguishable from true SVs since both strands are identical and represent the same SV (FIG. 9A). To address this problem, we used transposase-mediated tagmentation, i.e., the initial step in library preparation where high molecular weight DNA is cleaved and tagged for analysis. While commonly used in library preparation, we used it here in a different, unexpected way. Indeed, as commonly used tagmentation generates priming sites for subsequent PCR which in turn is prone to produce artificial chimeras, giving a similar problem as other approaches. […] To validate SMM-SV we evaluated somatic SV frequency in human primary mammary cells treated with two different doses of bleomycin, a potent […] known to induce somatic SVs. […]

[3] = Cond E25 (ENU 25 μg/ml), IMR90 cells
[4] = Cond E50 (ENU 50 μg/ml), IMR90 cells
[5] = IMR90 cells upon ENU treatment, mutational spectra (FIG. 2C)

CCN(N=O)C(N)=O [ENU, N-ethyl-N-nitrosourea]
sSNVs frq [1, 3]: 0.411 and 0.3226 and 0.3595
mutation spectra: CA count [1, 3]: 19 and 16 and 12
mutation spectra: CG count [1, 3]: 7 and 8 and 4
mutation spectra: CT count [1, 3]: 10 (2×) and 11
mutation spectra: TA count [1, 3]: 13 and 10 and 16
mutation spectra: TC count [1, 3]: 18 and 22 and 20
mutation spectra: TG count [1, 3]: 9 and 12 and 7
sSNVs count [1, 3]: 76 and 78 and 70
sSNVs frq [1, 4]: 0.571 and 0.5406
mutation spectra: CA count [1, 4]: 24 and 16
mutation spectra: CG count [1, 4]: 2 and 6
mutation spectra: CT count [1, 4]: 32 and 16
mutation spectra: TA count [1, 4]: 38 and 20
mutation spectra: TC count [1, 4]: 28 and 23
mutation spectra: TG count [1, 4]: 17 and 9
sSNVs count [1, 4]: 141 and 90
increase of mutation frequency versus control ([1]; ENU 50 μg/ml, IMR90 cells): more than 2 fold
mutation frequency ([1]; ENU 50 μg/ml, IMR90 cells, average±SD of three biological replicates, control 0.21±0.02, p=9.7*10-5): 0.54±0.03 SNV/1 Mb
relative representation of AT/CG mutations versus untreated control cells [1, 5]: more than 2 times
relative representation of AT/TA mutations versus untreated control cells [1, 5]: more than 2 times
cell death (IMR90 cells): do not cause any noticeable cell death

bleomycin
somatic SV frequency [2]: induced SVs in a dose-dependent manner
